Active and inactive are the calls of the source. No cut-off for these calls is given here.
Columns and labels:
[1] = target: B-cell lymphoma 6 protein (Homo sapiens, UniProt P41182); experiment: BCL6::NCOR LUMIER in cells
[2] = target: 5-hydroxytryptamine receptor 1A (Homo sapiens) (UniProt P08908); experiment: 5HT1A/H Eurofins SafetyScreen44 (BI); conditions: Compound concentration 10.0 uM
[3] = target: 5-hydroxytryptamine receptor 2A (Homo sapiens) (UniProt P28223); experiment: 5HT2AH_AGON Eurofins SafetyScreen44 (BI); conditions: filed as agonist, Compound concentration 10.0 uM
[4] = target: Alpha-1A adrenergic receptor (Homo sapiens) (UniProt P35348); experiment: ALPHA1AH_ANTAG Eurofins SafetyScreen44 (BI); conditions: filed as antagonist, Compound concentration 10.0 uM
[5] = target: Androgen receptor (Homo sapiens) (UniProt P10275); experiment: ANDROGEN/H Eurofins SafetyScreen44 (BI); conditions: Compound concentration 10.0 uM
[6] = target: Beta-1 adrenergic receptor (Homo sapiens) (UniProt P08588); experiment: BETA1/HUM Eurofins SafetyScreen44 (BI); conditions: Compound concentration 10.0 uM
[7] = target: Beta-2 adrenergic receptor (Homo sapiens) (UniProt P07550); experiment: BETA2/HUM Eurofins SafetyScreen44 (BI); conditions: filed as antagonist, Compound concentration 10.0 uM
[8] = target: Cannabinoid receptor 2 (Homo sapiens) (UniProt P34972); experiment: CB2/PERIPH/H Eurofins SafetyScreen44 (BI); conditions: Compound concentration 10.0 uM
[9] = target: Cholecystokinin receptor type A (Homo sapiens) (UniProt P32238); experiment: CCKA/H Eurofins SafetyScreen44 (BI); conditions: Compound concentration 10.0 uM
[10] = target: Glucocorticoid receptor (Homo sapiens) (UniProt P04150); experiment: GCORTICOID/H Eurofins SafetyScreen44 (BI); conditions: Compound concentration 10.0 uM
[11] = target: Mu-type opioid receptor (Homo sapiens) (UniProt P35372); experiment: MU/H Eurofins SafetyScreen44 (BI); conditions: Compound concentration 10.0 uM
[12] = target: Sodium-dependent noradrenaline transporter (Homo sapiens) (UniProt P23975); experiment: NEUP/H Eurofins SafetyScreen44 (BI); conditions: Compound concentration 10.0 uM
[13] = target: Neuronal acetylcholine receptor; alpha4/beta2 (Homo sapiens) (UniProt P17787+P43681); experiment: N_NEURO_A4B2 Eurofins SafetyScreen44 (BI); assay type: protein-complex assay; conditions: filed as agonist, Compound concentration 10.0 uM
[14] = target: Sodium-dependent serotonin transporter (Homo sapiens) (UniProt P31645); experiment: SLC6A4/H Eurofins SafetyScreen44 (BI); conditions: filed as antagonist, Compound concentration 10.0 uM
[15] = target: Vasopressin V1a receptor (Homo sapiens) (UniProt P37288); experiment: V1A/HUM Eurofins SafetyScreen44 (BI); conditions: Compound concentration 10.0 uM
[16] = target: Cyclin-dependent kinase 2/cyclin A (Homo sapiens) (UniProt P24941+P20248+P78396); experiment: CDK2/CYCLINA Invitrogen Lab (UK) kinase screen (BI); assay type: protein-complex assay; conditions: Compound concentration 1.0 uM
[17] = target: Glycogen synthase kinase-3 beta (Homo sapiens) (UniProt P49841); experiment: GSK3B Invitrogen Lab (UK) kinase screen (BI); conditions: Compound concentration 1.0 uM
[18] = target: Inhibitor of nuclear factor kappa-B kinase subunit beta (Homo sapiens) (UniProt O14920); experiment: IKBKB Invitrogen Lab (UK) kinase screen (BI); conditions: Compound concentration 1.0 uM
[19] = target: Interleukin-1 receptor-associated kinase 4 (Homo sapiens) (UniProt Q9NWZ3); experiment: IRAK4 Invitrogen Lab (UK) kinase screen (BI); conditions: Compound concentration 1.0 uM
[20] = target: Mitogen-activated protein kinase 1 (Homo sapiens) (UniProt P28482); experiment: MAPK1 Invitrogen Lab (UK) kinase screen (BI); conditions: Compound concentration 1.0 uM
[21] = target: Mitogen-activated protein kinase 8 (Homo sapiens) (UniProt P45983); experiment: MAPK8 Invitrogen Lab (UK) kinase screen (BI); conditions: Compound concentration 1.0 uM
[22] = target: Platelet-derived growth factor receptor alpha (Homo sapiens) (UniProt P16234); experiment: PDGFRA Invitrogen Lab (UK) kinase screen (BI); conditions: Compound concentration 1.0 uM
[23] = target: Serine/threonine-protein kinase PLK1 (Homo sapiens) (UniProt P53350); experiment: PLK1 Invitrogen Lab (UK) kinase screen (BI); conditions: Compound concentration 1.0 uM
[24] = target: cAMP-dependent protein kinase catalytic subunit alpha (Homo sapiens) (UniProt P17612); experiment: PRKACA Invitrogen Lab (UK) kinase screen (BI); conditions: Compound concentration 1.0 uM
[25] = target: Protein kinase C alpha type (Homo sapiens) (UniProt P17252); experiment: PRKCA Invitrogen Lab (UK) kinase screen (BI); conditions: Compound concentration 1.0 uM
[26] = target: Ribosomal protein S6 kinase alpha-3 (Homo sapiens) (UniProt P51812); experiment: RPS6KA3 Invitrogen Lab (UK) kinase screen (BI); conditions: Compound concentration 1.0 uM
[27] = target: Ribosomal protein S6 kinase alpha-5 (Homo sapiens) (UniProt O75582); experiment: RPS6KA5 Invitrogen Lab (UK) kinase screen (BI); conditions: Compound concentration 1.0 uM
[28] = target: Proto-oncogene tyrosine-protein kinase Src (Homo sapiens) (UniProt P12931); experiment: SRC Invitrogen Lab (UK) kinase screen (BI); conditions: Compound concentration 1.0 uM
[29] = target: SRSF protein kinase 2 (Homo sapiens) (UniProt P78362); experiment: SRPK2 Invitrogen Lab (UK) kinase screen (BI); conditions: Compound concentration 1.0 uM
[30] = target: Serine/threonine-protein kinase 3 (Homo sapiens) (UniProt Q13188); experiment: STK3 Invitrogen Lab (UK) kinase screen (BI); conditions: Compound concentration 1.0 uM
[31] = target: Serine/threonine-protein kinase TBK1 (Homo sapiens) (UniProt Q9UHD2); experiment: TBK1 Invitrogen Lab (UK) kinase screen (BI); conditions: Compound concentration 1.0 uM
[32] = target: 5-hydroxytryptamine receptor 3A (Homo sapiens) (UniProt P46098); conditions: Compound concentration 10.0 uM
[33] = target: 5-hydroxytryptamine receptor 5A (Homo sapiens) (UniProt P47898); conditions: Compound concentration 10.0 uM
[34] = target: D(2) dopamine receptor (Homo sapiens) (UniProt P14416); conditions: Compound concentration 10.0 uM
[35] = target: D(1B) dopamine receptor (Homo sapiens) (UniProt P21918); conditions: Compound concentration 10.0 uM
[36] = target: Sodium-dependent dopamine transporter (Homo sapiens) (UniProt Q01959); conditions: Compound concentration 10.0 uM
[37] = target: Mu-type opioid receptor (Homo sapiens) (UniProt P35372); conditions: Compound concentration 10.0 uM
[38] = target: Histamine H4 receptor (Homo sapiens) (UniProt Q9H3N8); conditions: Compound concentration 10.0 uM
[39] = target: Alpha-1B adrenergic receptor (Homo sapiens) (UniProt P35368); conditions: Compound concentration 10.0 uM
[40] = target: Muscarinic acetylcholine receptor M2 (Homo sapiens) (UniProt P08172); conditions: Compound concentration 10.0 uM
[41] = target: Muscarinic acetylcholine receptor M4 (Homo sapiens) (UniProt P08173); conditions: Compound concentration 10.0 uM
Rattus norvegicus = organism: Rattus norvegicus; conditions: Compound concentration 10.0 uM
[42] = target: Mitogen-activated protein kinase 3 (Homo sapiens) (UniProt P27361); experiment: MAPK3 Invitrogen Lab (UK) kinase screen (BI); conditions: Compound concentration 1.0 uM

Chain of Mu-type opioid receptor (Homo sapiens) (P35372 whole entry): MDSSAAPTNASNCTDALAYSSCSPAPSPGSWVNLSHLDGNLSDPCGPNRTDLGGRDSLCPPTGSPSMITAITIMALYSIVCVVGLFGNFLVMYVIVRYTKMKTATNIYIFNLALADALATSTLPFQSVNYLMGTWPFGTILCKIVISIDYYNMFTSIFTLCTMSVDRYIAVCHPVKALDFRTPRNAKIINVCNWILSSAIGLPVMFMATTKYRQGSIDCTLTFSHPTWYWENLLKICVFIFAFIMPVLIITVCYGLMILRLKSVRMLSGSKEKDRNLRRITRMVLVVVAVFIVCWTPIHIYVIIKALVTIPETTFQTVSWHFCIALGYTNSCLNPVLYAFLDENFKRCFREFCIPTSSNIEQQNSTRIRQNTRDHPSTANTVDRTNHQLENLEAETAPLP
Chain of D(1B) dopamine receptor (Homo sapiens) (P21918 whole entry): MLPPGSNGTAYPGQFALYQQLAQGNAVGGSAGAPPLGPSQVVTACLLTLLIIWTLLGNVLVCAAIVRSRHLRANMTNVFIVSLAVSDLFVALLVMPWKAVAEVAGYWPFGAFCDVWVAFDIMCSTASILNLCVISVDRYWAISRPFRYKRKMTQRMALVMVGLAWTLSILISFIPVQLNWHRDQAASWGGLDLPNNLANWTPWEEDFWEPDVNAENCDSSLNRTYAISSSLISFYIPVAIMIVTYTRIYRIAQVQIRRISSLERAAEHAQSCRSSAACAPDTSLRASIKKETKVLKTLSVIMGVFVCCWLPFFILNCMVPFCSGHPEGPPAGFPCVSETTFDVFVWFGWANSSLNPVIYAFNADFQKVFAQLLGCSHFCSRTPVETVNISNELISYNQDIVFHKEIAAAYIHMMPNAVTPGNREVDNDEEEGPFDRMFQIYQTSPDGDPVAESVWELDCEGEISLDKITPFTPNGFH
Chain of Histamine H4 receptor (Homo sapiens) (Q9H3N8 whole entry): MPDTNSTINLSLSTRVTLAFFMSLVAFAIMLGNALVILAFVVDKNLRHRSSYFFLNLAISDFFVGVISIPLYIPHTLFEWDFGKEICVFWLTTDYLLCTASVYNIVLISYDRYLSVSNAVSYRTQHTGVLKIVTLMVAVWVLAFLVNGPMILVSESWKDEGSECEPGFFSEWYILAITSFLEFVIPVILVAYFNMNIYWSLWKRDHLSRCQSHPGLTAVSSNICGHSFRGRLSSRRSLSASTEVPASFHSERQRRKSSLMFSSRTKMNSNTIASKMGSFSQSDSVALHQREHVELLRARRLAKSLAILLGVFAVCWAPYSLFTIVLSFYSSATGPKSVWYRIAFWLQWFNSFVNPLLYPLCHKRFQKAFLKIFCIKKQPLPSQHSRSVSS
Chain of 5-hydroxytryptamine receptor 3A (Homo sapiens) (P46098 whole entry): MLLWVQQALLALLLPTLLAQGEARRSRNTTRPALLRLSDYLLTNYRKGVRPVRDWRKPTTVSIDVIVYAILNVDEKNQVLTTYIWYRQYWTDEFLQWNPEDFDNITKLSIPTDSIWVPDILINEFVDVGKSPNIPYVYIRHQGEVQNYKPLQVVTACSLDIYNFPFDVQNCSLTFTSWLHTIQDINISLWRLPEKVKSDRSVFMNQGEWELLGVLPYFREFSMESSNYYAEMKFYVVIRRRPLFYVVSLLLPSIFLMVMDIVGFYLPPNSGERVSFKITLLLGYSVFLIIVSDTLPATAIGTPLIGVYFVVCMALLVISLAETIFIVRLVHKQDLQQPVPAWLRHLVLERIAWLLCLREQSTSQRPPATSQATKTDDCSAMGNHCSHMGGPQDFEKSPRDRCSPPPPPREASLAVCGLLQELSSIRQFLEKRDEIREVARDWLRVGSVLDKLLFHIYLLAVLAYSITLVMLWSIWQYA
Chain of Muscarinic acetylcholine receptor M4 (Homo sapiens) (P08173 whole entry): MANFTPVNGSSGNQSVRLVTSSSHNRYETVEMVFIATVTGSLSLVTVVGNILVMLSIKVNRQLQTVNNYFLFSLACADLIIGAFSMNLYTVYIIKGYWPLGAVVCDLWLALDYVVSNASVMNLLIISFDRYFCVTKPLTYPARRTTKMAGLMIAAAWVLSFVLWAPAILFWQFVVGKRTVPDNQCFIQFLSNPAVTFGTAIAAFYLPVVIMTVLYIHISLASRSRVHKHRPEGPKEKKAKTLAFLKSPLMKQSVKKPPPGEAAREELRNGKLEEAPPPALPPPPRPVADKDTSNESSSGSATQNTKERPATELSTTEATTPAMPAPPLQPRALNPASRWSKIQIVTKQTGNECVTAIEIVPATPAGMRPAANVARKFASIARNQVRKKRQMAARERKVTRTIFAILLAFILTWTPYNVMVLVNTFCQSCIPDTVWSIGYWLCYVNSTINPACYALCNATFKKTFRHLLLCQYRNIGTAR
Chain of D(2) dopamine receptor (Homo sapiens) (P14416 whole entry): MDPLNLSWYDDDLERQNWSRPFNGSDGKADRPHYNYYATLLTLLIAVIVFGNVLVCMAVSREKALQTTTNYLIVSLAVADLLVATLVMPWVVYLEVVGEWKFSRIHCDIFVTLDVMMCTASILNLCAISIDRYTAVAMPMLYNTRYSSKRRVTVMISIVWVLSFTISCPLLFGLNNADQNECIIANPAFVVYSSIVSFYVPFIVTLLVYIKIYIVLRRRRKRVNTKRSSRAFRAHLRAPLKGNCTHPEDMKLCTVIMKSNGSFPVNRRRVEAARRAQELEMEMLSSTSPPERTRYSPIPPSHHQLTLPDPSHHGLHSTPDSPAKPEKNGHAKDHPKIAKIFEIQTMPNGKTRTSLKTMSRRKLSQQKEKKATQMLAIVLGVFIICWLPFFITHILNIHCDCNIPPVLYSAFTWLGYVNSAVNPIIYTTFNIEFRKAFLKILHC
Chain of Sodium-dependent dopamine transporter (Homo sapiens) (Q01959 whole entry): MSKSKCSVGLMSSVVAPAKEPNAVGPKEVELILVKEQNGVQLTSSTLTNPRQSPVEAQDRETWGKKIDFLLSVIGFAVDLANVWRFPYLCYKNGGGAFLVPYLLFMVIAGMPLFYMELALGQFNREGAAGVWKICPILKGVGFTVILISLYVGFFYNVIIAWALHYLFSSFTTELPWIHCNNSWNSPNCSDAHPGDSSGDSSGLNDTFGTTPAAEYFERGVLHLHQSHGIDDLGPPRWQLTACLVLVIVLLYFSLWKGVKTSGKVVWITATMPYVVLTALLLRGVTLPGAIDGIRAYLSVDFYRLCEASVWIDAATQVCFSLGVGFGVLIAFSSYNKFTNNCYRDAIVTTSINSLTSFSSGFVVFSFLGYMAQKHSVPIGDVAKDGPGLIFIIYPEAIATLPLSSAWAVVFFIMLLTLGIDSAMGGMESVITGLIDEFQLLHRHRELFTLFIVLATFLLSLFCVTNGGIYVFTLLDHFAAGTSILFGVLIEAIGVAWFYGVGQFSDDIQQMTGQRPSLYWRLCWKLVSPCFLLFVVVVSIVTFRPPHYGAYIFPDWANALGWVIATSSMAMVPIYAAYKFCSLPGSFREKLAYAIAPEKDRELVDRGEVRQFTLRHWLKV
Chain of Alpha-1B adrenergic receptor (Homo sapiens) (P35368 whole entry): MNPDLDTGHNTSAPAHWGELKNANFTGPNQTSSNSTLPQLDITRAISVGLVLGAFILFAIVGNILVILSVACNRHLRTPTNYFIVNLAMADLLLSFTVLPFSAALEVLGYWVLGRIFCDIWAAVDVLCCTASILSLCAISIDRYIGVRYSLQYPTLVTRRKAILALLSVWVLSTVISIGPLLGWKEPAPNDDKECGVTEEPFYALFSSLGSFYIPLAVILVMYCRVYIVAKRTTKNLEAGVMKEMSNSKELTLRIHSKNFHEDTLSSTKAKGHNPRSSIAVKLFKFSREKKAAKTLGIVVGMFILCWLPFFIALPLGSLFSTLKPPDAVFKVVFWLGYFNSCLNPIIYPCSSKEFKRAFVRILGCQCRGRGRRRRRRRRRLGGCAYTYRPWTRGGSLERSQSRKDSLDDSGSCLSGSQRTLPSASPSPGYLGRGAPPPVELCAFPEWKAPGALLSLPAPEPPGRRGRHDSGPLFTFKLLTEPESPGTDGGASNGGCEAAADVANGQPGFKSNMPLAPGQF
Chain of 5-hydroxytryptamine receptor 5A (Homo sapiens) (P47898 whole entry): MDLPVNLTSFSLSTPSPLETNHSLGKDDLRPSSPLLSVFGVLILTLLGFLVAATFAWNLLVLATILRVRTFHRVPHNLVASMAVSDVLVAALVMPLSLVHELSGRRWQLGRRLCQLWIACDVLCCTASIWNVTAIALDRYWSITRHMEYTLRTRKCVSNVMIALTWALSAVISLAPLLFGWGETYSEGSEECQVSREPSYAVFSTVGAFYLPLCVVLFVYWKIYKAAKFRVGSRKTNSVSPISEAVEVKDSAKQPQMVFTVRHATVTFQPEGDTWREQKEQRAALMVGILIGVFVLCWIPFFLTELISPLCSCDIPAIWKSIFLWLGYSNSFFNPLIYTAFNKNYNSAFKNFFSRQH
Chain of Muscarinic acetylcholine receptor M2 (Homo sapiens) (P08172 whole entry): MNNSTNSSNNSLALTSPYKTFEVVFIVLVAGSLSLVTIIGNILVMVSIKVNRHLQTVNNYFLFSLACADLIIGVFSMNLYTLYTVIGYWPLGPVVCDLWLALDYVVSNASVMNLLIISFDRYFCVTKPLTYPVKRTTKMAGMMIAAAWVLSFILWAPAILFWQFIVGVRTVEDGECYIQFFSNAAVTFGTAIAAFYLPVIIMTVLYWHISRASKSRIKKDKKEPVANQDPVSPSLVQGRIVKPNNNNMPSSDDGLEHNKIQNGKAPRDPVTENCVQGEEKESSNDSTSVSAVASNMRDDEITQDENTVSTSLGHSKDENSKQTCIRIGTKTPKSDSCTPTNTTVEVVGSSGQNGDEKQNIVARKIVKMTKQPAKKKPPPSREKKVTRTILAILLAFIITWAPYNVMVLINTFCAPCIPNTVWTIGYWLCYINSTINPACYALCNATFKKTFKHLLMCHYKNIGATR

CNC(=O)COc1cc2cc(Nc3nc(N4CCC(C(=O)N(C)C)CC4)ncc3Cl)cc(OC)c2n(C)c1=O
IC50 [1]: 40 nM (active)
residual activity [2]: 89%
residual activity [3]: 119%
residual activity [4]: 99%
residual activity [5]: 99%
residual activity [6]: 100%
residual activity [7]: 92%
residual activity [8]: 113%
residual activity [9]: 93%
residual activity [10]: 102%
residual activity [11]: 95%
residual activity [12]: 99%
residual activity [13]: 98%
residual activity [14]: 105%
residual activity [15]: 101%
residual activity [16]: 88%
residual activity [17]: 97%
residual activity [18]: 96%
residual activity [19]: 106%
residual activity [20]: 98%
residual activity [21]: 82%
residual activity [22]: 88%
residual activity [23]: 100%
residual activity [24]: 99%
residual activity [25]: 90%
residual activity [26]: 93%
residual activity [27]: 103%
residual activity [28]: 88%
residual activity [29]: 103%
residual activity [30]: 100%
residual activity [31]: 97%
inhibition [32]: 28.1%
inhibition [33]: 12.9%
inhibition [34]: 1.86%
inhibition [35]: 3.05%
inhibition [36]: 12.2%
inhibition [37]: 17.4%
inhibition [38]: -1.33%
inhibition [39]: 9.69%
inhibition [40]: 19.5%
inhibition [41]: 74.1%
inhibition (Rattus norvegicus): 49.5%
residual activity [42]: 95%

— ChEMBL document CHEMBL5303764, “Data for DCP probe BI-3812” (2023)
